Reference: patent US20180099931A1 (AbbVie S.à.r.l., priority 2016, published 2018)
Like-named read-outs stand apart in the source and are kept apart here.

Target: T1, F508delCFTR (Homo sapiens, UniProt P13569, DEL508-508)
T1 construct: expressed in transfected cells; host or cells: CFBE41o- human lung-derived epithelial cells (CFBE4lo-F508delCFTR-HRP), doxycycline-inducible
Assay: Cell Surface Expression-Horse Radish Peroxidase (CSE-HRP) Assay;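 for Maximum % activity (with co-corrector): co-corrector and positive control are both the same reference corrector at 2 µM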;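 for Maximum % activity (without co-corrector): percent of the 2 µM on-plate positive control corrector response above DMSO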
Format: cell-based
Conditions: for Emax / Maximum % activity (with co-corrector): maximum at any tested concentration, normalized to on-plate positive control; for Emax: read-out: Maximum % activity (without co-corrector)

[1] = test compound without co-corrector
[2] = test compound without co-corrector, read-out: EC50 (without co-corrector)
[3] = with co-corrector (2 μM of 3-[(2R,4R)-4-({[1-(2,2-difluoro-1,3-benzodioxol-5-yl)cyclopropyl]carbonyl}amino)-7-methoxy-3,4-dihydro-2H-chromen-2-yl]benzoic acid)
[4] = with co-corrector (2 μM of 3-[(2R,4R)-4-({[1-(2,2-difluoro-1,3-benzodioxol-5-yl)cyclopropyl]carbonyl}amino)-7-methoxy-3,4-dihydro-2H-chromen-2-yl]benzoic acid), read-out: EC50 (with co-corrector)
[5] = CSE-HRP, test compound without co-corrector, read-out: EC50 (without co-corrector)
[6] = CSE-HRP, with co-corrector (2 μM of 3-[(2R,4R)-4-({[1-(2,2-difluoro-1,3-benzodioxol-5-yl)cyclopropyl]carbonyl}amino)-7-methoxy-3,4-dihydro-2H-chromen-2-yl]benzoic acid), read-out: EC50 (with co-corrector)
[7] = CSE-HRP, with co-corrector (2 μM)

T1 sequence (P13569 with tags, fused parts or gaps DEL508-508): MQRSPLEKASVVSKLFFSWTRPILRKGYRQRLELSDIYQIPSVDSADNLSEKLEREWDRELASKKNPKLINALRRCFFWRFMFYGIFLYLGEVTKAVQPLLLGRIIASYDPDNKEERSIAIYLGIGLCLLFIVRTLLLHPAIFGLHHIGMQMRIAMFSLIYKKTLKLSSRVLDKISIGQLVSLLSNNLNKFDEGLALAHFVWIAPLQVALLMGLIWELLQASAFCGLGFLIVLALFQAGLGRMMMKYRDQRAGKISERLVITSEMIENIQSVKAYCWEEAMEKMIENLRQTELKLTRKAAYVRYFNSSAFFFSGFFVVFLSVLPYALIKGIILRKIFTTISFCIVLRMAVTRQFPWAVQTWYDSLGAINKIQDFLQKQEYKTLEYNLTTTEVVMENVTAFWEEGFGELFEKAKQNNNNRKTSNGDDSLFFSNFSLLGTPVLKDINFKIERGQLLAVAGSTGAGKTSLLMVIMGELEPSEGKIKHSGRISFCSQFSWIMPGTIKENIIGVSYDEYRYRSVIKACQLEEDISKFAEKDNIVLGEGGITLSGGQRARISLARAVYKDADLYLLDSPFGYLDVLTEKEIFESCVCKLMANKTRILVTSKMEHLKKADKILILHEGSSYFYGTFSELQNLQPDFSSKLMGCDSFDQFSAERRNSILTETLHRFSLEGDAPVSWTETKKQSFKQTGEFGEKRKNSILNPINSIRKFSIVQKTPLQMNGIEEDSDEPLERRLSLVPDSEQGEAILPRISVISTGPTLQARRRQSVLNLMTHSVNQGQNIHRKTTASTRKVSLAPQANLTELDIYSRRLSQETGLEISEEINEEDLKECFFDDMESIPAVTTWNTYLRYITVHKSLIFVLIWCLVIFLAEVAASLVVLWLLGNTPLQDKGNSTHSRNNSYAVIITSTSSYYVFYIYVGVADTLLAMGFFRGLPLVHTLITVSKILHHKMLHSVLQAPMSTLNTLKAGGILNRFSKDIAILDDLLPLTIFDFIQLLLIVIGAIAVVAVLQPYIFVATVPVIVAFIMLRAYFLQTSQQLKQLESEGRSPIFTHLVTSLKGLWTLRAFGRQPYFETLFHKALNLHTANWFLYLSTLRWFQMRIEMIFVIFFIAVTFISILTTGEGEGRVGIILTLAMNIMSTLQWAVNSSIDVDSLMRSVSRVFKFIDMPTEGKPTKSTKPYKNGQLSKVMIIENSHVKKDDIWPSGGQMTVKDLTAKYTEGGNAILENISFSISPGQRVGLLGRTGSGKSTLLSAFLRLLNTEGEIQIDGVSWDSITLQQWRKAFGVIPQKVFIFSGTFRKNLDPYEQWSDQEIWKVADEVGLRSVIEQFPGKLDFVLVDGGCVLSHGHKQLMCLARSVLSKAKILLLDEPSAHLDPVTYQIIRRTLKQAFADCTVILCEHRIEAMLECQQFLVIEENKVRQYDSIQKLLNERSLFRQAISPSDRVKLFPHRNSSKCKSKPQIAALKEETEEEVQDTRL

Emax [1] [%]	EC50 [2] [nM]	Maximum % activity (with co-corrector) [3]	EC50 [4] [nM]	EC50 [5] [nM]	EC50 [6] [nM]	Maximum % activity (with co-corrector) [7]	Emax (CSE-HRP, without co-corrector) [%]	Maximum % activity (with co-corrector) (with co-corrector (2 μM))	Emax (without co-corrector) [%]	SMILES
> 200	1000 to 10000	+++ (≥350)	< 1000							COc1ccc(C(C)(C)C)cc1CN[C@H]1[C@H](C(C)(C)C)[C@@H](C(=O)O)N(C(=O)C2CCCC2)[C@H]1c1ccccc1 [II-332]
100 to 200	< 1000	+++ (≥350)	< 1000							COc1ccc(C23CC(C2)C3)cc1CN[C@H]1[C@H](C(C)(C)C)[C@@H](C(=O)O)N(C(=O)C2CCCCC2)[C@H]1c1ccccc1OC [II-484]
				1000 to 10000	1000 to 10000	++ (≥150 and <350)	< 100			CC(C)(C)c1cccc(CN[C@H]2[C@H](C(C)(C)C)[C@@H](C(=O)O)N(C(=O)C3CCCCC3)[C@H]2c2ccccc2)c1 [II-121]
	1000 to 10000		< 1000					+++ (≥350)	> 200	COc1ncc(C2CCC2)cc1CN[C@H]1[C@H](C(C)(C)C)[C@@H](C(=O)O)N(C(=O)[C@@H]2CCCO2)[C@H]1c1ccccc1C1CC1 [Example 107, (2S,3S,4S,5S)-3-tert-butyl-4-{[(5-cyclobutyl-2-methoxypyridin-3-yl)methyl]amino}-5-(2-cyclopropylphenyl)-1-[(2S)-oxolane-2-carbonyl]pyrrolidine-2-carboxylic acid]
	< 1000		< 1000					+++ (≥350)	> 200	COc1ccc(C(C)(C)C)cc1CN[C@H]1[C@H](C(C)(C)C)[C@@H](C(=O)O)N(C(=O)C2CCCC(F)(F)C2)[C@H]1c1cccnc1N(C)C (single isomer, unassigned) [Example 42, (2S,3S,4S,5S)-3-tert-butyl-4-{[(5-tert-butyl-2-methoxyphenyl)methyl]amino}-1-[(1R*)-3,3-difluorocyclohexane-1-carbonyl]-5-[2-(dimethylamino)pyridin-3-yl]pyrrolidine-2-carboxylic acid]
				1000 to 10000	< 1000	+++ (≥350)	> 200			COc1ccc(C(C)(C)C)cc1CN[C@H]1[C@H](C(C)(C)C)[C@@H](C(=O)O)N(C(=O)Cc2cccs2)[C@H]1c1ccccc1 [II-182]
	1000 to 10000		1000 to 10000					++ (≥150 and <350)	< 100	Cc1cc(C(F)(F)F)cc(N[C@H]2[C@H](C(C)(C)C)[C@@H](C(=O)O)N(C(=O)C3C4CCCC43)[C@H]2c2cccnc2N(C)C)n1 (stereo partly drawn) [Example I-222]
< 100	1000 to 10000	++ (≥150 and <350)	< 1000							COc1ccc(CN[C@@H]2[C@@H](C(C)(C)C)[C@H](C(=O)O)N(C(=O)C3CCCCC3)[C@@H]2c2ccccc2)c(OC)c1Cl (racemic) [III-15]
	< 1000		< 1000					+++ (≥350)	> 200	COc1ncc(C(F)(F)F)cc1CN[C@H]1[C@H](C(C)(C)C)[C@@H](C(=O)O)N(C(=O)[C@@H]2CCCCO2)[C@H]1c1ccccc1C(C)C [Example 84, (2S,3S,4S,5S)-3-tert-butyl-4-({[2-methoxy-5-(trifluoromethyl)pyridin-3-yl]methyl}amino)-1-[(2S)-oxane-2-carbonyl]-5-[2-(propan-2-yl)phenyl]pyrrolidine-2-carboxylic acid]
	< 1000		< 1000					+++ (≥350)	100 to 200	COc1ncc(Cc2ccccc2)cc1CN[C@H]1[C@H](C(C)(C)C)[C@@H](C(=O)O)N(C(=O)C2CCCCC2)[C@H]1c1ccccc1 [Example I-69]
> 200	< 1000	+++ (≥350)	< 1000							COc1ccc(C(C)(C)C)cc1CN[C@H]1[C@H](C(C)(C)C)[C@@H](C(=O)O)N(C(=O)c2ccc(Oc3ccccn3)cc2)[C@H]1c1cccnc1N(C)C [II-466]
100 to 200	1000 to 10000	+++ (≥350)	1000 to 10000							COc1ncc(C(F)(F)F)cc1CN[C@@H]1[C@@H](C(C)(C)C)[C@H](C(=O)O)N(C(=O)C2CCCCC2)[C@@H]1c1ccccc1 (racemic) [III-81]
> 200	1000 to 10000	+++ (≥350)	1000 to 10000							COc1ccc(C(F)(F)F)cc1CN[C@H]1[C@H](C(C)(C)C)[C@@H](C(=O)O)N(C(=O)OC(C)C)[C@H]1c1cccnc1N(C)C [II-551]
< 100	1000 to 10000		1000 to 10000					++ (≥150 and <350)		CC(C)(C)[C@H]1[C@H](Nc2cncc3ccccc23)[C@H](c2ccccc2)N(C(=O)C2CCCCC2)[C@@H]1C(=O)O [III-162]
				1000 to 10000	1000 to 10000	+++ (≥350)	100 to 200			COc1ccc(C(C)(C)C)cc1CN[C@H]1[C@H](C(C)(C)C)[C@@H](C(=O)O)N(C(=O)CC2CCOc3ccccc32)[C@H]1c1ccccc1 (stereo partly drawn) [II-213]
< 100	1000 to 10000	++ (≥150 and <350)	1000 to 10000							COc1ncc(CN[C@@H]2[C@@H](C(C)(C)C)[C@H](C(=O)O)N(C(=O)C3CCCCC3)[C@@H]2c2ccccc2)c(OC)n1 (racemic) [III-29]
				1000 to 10000	1000 to 10000	+++ (≥350)	> 200			COc1ccc(C(F)(F)F)cc1CN[C@@H]1[C@@H](C(C)(C)C)[C@H](C(=O)O)N(C(=O)[C@@H]2CCCO[C@@H]2C)[C@@H]1c1ccccc1 (racemic) [II-34]
				1000 to 10000	1000 to 10000	+++ (≥350)	> 200			COc1ccc(C(C)C)cc1CN[C@H]1[C@H](C(C)(C)C)[C@@H](C(=O)O)N(C(=O)OC(C)C)[C@H]1c1ccccc1 [II-169]
< 100	> 10000	++ (≥150 and <350)	1000 to 10000							CC(C)(C)[C@@H]1[C@@H](NCc2cc(C(F)(F)F)cnc2OCCO)[C@@H](c2ccccc2)N(C(=O)C2CCCCC2)[C@H]1C(=O)O (racemic) [III-87]
< 100	> 10000	++ (≥150 and <350)	1000 to 10000							CC(C)(C)[C@@H]1[C@@H](NCc2cccc(Cl)c2O)[C@@H](c2ccccc2)N(C(=O)C2CCCCC2)[C@H]1C(=O)O (racemic) [III-9]
	1000 to 10000		1000 to 10000					++ (≥150 and <350)	< 100	COc1ccc(-c2cncnc2)cc1CN[C@H]1[C@H](C(C)(C)C)[C@@H](C(=O)O)N(C(=O)C2CCCCC2)[C@H]1c1ccccc1 [Example I-114]
	1000 to 10000		1000 to 10000					+++ (≥350)	< 100	COc1ccc(C(F)(F)F)cc1CN[C@@H]1[C@@H](C(C)(C)C)[C@H](C(=O)O)N(C(=O)C(C)Oc2ccccc2)[C@@H]1c1ccccc1 (relative stereo) [Example I-32]
				< 1000	< 1000	+++ (≥350)	> 200			COc1ccc(C2CCC2)cc1CN[C@H]1[C@H](C(C)(C)OC)[C@@H](C(=O)O)N(C(=O)C2CCCCC2)[C@H]1c1ccccc1 [II-255]
				1000 to 10000	< 1000	+++ (≥350)	< 100			COc1ccc(C(F)(F)F)cc1CN[C@H]1[C@H](C(C)(C)C)[C@@H](C(=O)O)N(C(=O)C2CCc3ccccc3O2)[C@H]1c1ccccc1 (stereo partly drawn) [II-163]
